Where “and” joins values, the source holds several entries; their conditions need not be identical. Identical values can stand only once.
Key:
[1] = DPPH test (radical scavenger effect); type: biochemical; details: for radical scavenging activity (DPPH test), Mean: Example 8 series, in %; for anti-free-radicals effect (% vs negative control): DPPH test
MMP-12 = MMP-12 (Homo sapiens, UniProt P39900); test: Anti-MMP activity, kinetic test with thiopeptide substrate, MMP-12; type: biochemical
Description: (§1) Anti-MMP activity was evaluated on matrix metalloproteases MMP-2 and MMP-12.
(§2) The substrat of MMPs is thiopeptide [Ac-PLG-2mercapto-4-methyl-pentanoyl)-LG-OC2H5] (EnzoLifeSciences, P125-9090). The test is carried out in 96-well plates. Different medium are prepared: A <> containing assay buffer and the substrate—Value obtained with blank was deduced from all other conditions. Positive control, NNGH (EnzoLifeSciences, PI 115-9090), which is metalloproteinase inhibitor, diluted at 1/200 in assay buffer. Untreated control, containing assay buffer, MMP and the substrate: this corresponds to 100% MMP activity.
(§3) Other conditions contain assay buffer, MMP, the substrate and the solution to be tested. After 45 min preincubation at 37° C. (to get interaction between MMP and tested product: tested solution or positive control), substrate is added and plate is immediately placed in Plate reader for kinetic measurement of absorbance at 405 nm (maximum absorbance of coloured product resulting from degradation of substrate by MMP). Full plate is read each minute during 20 minutes. After 20 min, a curve reflecting kinetic evolution of MMPs activity is obtained.
(§4) In the linear phase, the slope of the curve provides with MMP activity. The percentage inhibition was calculated with respect to the untreated control according to the formula:
(§5) Inhibition percentage=100−((slope of tested product/Mean of the untreated control slopes)*100)
(§6) This test was performed on MMP-2 and MMP-12. Tested solution containing Geophila cordifiolia extract was obtained according to example 1c) and tested at different concentration.
(§7) Tests used were performed in the same conditions than above described with Geophila cordifolia. Extract of Geophila repens was obtained according to example 7a) and tested at different concentrations.

MMP-2 = molecular target: T1, MMP-2 (Homo sapiens, UniProt P08253); test: Anti-MMP activity, kinetic test with thiopeptide substrate, MMP-2; type: biochemical
T1 sequence (P08253 110-660): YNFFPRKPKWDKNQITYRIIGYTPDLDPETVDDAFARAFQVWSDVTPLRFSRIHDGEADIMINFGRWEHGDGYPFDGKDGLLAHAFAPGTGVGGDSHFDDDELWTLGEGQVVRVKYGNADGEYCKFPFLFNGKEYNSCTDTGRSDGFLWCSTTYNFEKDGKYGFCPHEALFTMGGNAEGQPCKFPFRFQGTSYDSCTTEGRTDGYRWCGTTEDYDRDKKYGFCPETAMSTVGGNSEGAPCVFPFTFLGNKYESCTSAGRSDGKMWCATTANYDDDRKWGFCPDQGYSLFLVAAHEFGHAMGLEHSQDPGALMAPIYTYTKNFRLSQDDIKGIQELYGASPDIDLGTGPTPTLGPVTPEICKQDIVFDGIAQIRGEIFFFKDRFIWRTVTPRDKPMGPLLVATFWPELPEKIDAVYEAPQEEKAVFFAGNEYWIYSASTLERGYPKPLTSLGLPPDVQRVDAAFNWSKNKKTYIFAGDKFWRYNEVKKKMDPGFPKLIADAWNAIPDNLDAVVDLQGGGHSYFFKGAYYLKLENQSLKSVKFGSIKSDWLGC
Description: as §1, §2, §3, §4, §5, §6, §7

[2] = molecular target: T2, HLE (Human Leucocyte Elastase) (Homo sapiens, UniProt P08246); test: HLE test (anti-elastase activity, cleavage of coloured peptide substrate); type: biochemical
T2 sequence (P08246 30-267): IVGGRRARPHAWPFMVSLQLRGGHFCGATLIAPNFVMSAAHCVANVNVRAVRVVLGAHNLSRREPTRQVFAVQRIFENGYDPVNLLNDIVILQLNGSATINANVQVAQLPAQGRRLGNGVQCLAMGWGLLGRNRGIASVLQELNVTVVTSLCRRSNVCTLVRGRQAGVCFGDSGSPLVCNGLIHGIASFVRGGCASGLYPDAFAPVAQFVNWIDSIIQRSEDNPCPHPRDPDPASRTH
Description: The anti-elastase activity was evaluated using HLE (Human Leucocyte Elastase). […] The principle of this test resides in measuring the degree of cleavage of a coloured peptide substrate by HLE.
The tested products were as follows: • the extract of the invention was prepared in accordance with Example 1a) tested at final concentrations of 0.5%, 1%, 2% and 3% (w/w); • a 0.01% (w/w) solution of ursolic acid was used as the positive inhibition control for inhibition; • no solution was used as the negative control (the reaction buffer for the enzyme replaces the tested product).
The percentage inhibition was calculated for each test product with respect to the negative control (=100% activity i.e. 0% inhibition).
as §7

type I collagen = test: Fluorescent immunostaining of type I collagen on monolayer cultured fibroblasts; type: cell-based, human; details: 50 μg/ml
Description: Immunofluorescence makes it possible to observe different markers expressed by cells via the use of antibody recognizing these markers. In first step, cells were fixed in cold methanol for 10 minutes. After washing with PBS, antigenic aspecific sites were then blocked for 1 hour with PBS-BSA 1% solution (Bovine serum albumin). Primary antibody diluted at 1% in PBS/BSA 1% was incubated with cells for 1 hour. On the negative control is added IgG control isotope (instead of primary antibody). The excess of anti-body which has not been attached is removed by 2 washings with PBS. Cells were incubated out of light with a solution of secondary antibodies able to recognize primary antibody. This secondary antibody being linked with fluorochrome (Alexa Fluor 488), it makes it possible to see protein with florescent microscopy. Cells were then gently washed 3 times with PBS, and slides covered with mounting medium containing DAPI (Vector®, Vectashield), a nuclear colouring agent. Slides were stored out of light to maintain fluorescence of fluorochrome and analysed with confocal microscopy. Antibodies used in this test were: • primary antibody: collagen 1: rabbit anti-human type I collagen, polyclonal, diluted 1/200 (Novotech 20111) • primary antibody: Isotype IgG1: rabbit IgG1 isotype, ready to use (Zymed Laboratories 08-6199) • secondary antibody: goat anti-rabbit IgG coupled with Alexa fluor 488, polyclonal, diluted 1/1000 (in Vitrogen A11008) Cells used for immunostaining were obtained from fibroblasts from donor […]. Geophila cordifolia obtained according to example 1c) was tested at 1% (diluted in water). Fluorescent Immunostaining of type I collagen on monolayer cultured fibroblasts treated with vegetal extract obtained from example 1c) (magnification 400×, scale bar=25 μm).

elastin = test: Expression of elastin gene by quantitative RT-PCR in normal human fibroblasts; type: cell-based; details: IL-1b treated fibroblasts, untreated non-irradiated = 1
Description: (§8) Their level of expression has been related to the number of cells using the housekeeping gene actin. Expression of the LOXL gene was also followed by quantitative RT-PCR under non-irradiated conditions after application for 24 hours of a Geophila cordifolia extract obtained according to process 1a) at 1%.
(§9) Normal human fibroblasts (NH F) cultivated in a FGM medium (fibroblast growth medium, Promocell) were exposed to a UV stress. A Fisher Bioblock type UVA or UVB source with an electric power of 0.3 mW/cm^2 was used. The UV dose was monitored using a radiometer (VLX 3W) and a CX-312 probe for UVB or a CX-365 probe for UVA. Various UV irradiation conditions were evaluated: For a wavelength of λ=312 nm (UVB) • UVB 5 mJ/cm^2, the exposure time was 30 seconds; • UVB 10 mJ/cm^2, the exposure time was 1 minute;
(§10) Total RNA from the monolayer culture was extracted with the SV96 Total RNA Isolation System® following the manufacturer's instructions. The total RNA was eluted in 100 μl of nuclease-free water and quantified using a spectrophotometer at 260 nm (Molecular Devices Spectramax 190). […]
A quantity of 50 ng of total RNA was amplified by Real Time RT-PCR (Quantitek Sybr Green® kit). The primers used in the RT-PCR experiments (semi-quantitative or real time) were as follows: […]

LOXL = test: Expression of LOXL gene by quantitative RT-PCR in normal human fibroblasts; type: cell-based; details: IL-1b treated fibroblasts, untreated non-irradiated = 1
Description: as §8, with “The expression of genes for elastin and LOXL was measured using quantitative RT-PCR under standard culture conditions or after irradiation with increasing doses of UVB or UVA. Their” for “Their”
as §9, §10
A quantity of 50 ng of total RNA was amplified by Real Time RT-PCR (Quantitek Sybr Green® kit). […]

[3] = Lipid peroxidation test (TBARS assay, UV-induced peroxidation); type: biochemical; details: 1% (w/w)
Description: The radical scavenger effect was evaluated: • using the standard test with DPPH (1,1-diphenyl-2-picrylhydrazyl) the principle of which is the measurement of the bleaching induced in the presence of anti oxidants; • by the lipid peroxidation method. The TBArs technique means that malondialdehyde (MDA), one of the terminal products formed during the decomposition of polyunsaturated fatty acids mediated by free radicals, can be assayed. It is assayed by condensation in an acidic medium with hot thiobarbituric acid (TBA), thereby forming a pink chromogen which absorbs strongly between 530 and 535 nm. […] The intensity of the colour is directly proportional to the quantity of MDA. The inhibition of UV-induced peroxidation during incorporation of an active agent allows its anti-oxidizing potential to be calculated.
A 5% liposomal suspension was prepared in deionized water. […] A “blank” was also deposited on a non-irradiated control plate for the spectrophotometer reading (water), the non-irradiated positive control measurements and the non-irradiated test measurements (active agent tested at different concentrations). […]
The percentage inhibition was calculated for each test product with respect to the negative control (=100% of generated free radicals meaning 0% anti-free-radicals effect)

[4] = NNGH diluted at 1/200 in assay buffer
[5] = positive control, Example 8 series

Chain of MMP-12 (P39900 106-470): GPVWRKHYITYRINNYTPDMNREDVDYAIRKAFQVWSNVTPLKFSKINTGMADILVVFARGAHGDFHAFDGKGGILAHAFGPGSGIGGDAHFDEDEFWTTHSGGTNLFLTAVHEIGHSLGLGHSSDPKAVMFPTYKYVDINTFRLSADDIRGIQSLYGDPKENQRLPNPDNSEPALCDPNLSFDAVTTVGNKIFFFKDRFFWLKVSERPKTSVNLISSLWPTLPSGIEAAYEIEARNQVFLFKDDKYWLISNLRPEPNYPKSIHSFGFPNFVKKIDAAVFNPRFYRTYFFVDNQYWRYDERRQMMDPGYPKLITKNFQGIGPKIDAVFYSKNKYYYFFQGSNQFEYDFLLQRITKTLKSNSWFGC

## N[C@@H](CS)C(=O)O [Cysteine, cysteine]
[1]; 2.5 mg/l
  radical scavenging activity (DPPH test), Mean: 68.52
  anti-free-radicals effect (% vs negative control): 47.6%
[1]; 5 mg/l
  radical scavenging activity (DPPH test), Mean: 79.49
  anti-free-radicals effect (% vs negative control): 83.1%

## COc1ccc(S(=O)(=O)N(CC(=O)NO)CC(C)C)cc1 [NNGH]
MMP-12; [4]
  MMP-12 inhibition, Mean (%): 58.63^+++ %
MMP-12; positive control, 1/200
  inhibition of MMP-12 activity (in words): strongly and significantly inhibits
MMP-12; [5]
  anti-MMP 12 effect, mean: 72.5825
MMP-2; [4]
  MMP-2 inhibition, Mean (%): 73.43^+++ %
MMP-2; positive control, 1/200
  inhibition of MMP-2 activity (in words): strongly and significantly inhibits
MMP-2; [5]
  anti-MMP2 effect, mean: 62.51

## C[C@H]1[C@H](C)CC[C@]2(C(=O)O)CC[C@]3(C)C(=CC[C@@H]4[C@@]5(C)CC[C@H](O)C(C)(C)[C@@H]5CC[C@]43C)[C@H]12 [Ursolic acid, ursolic acid]
[2]; 0.01% (w/w)
  HLE inhibition (%): 85%
[2]; 0.01%, Example 8 series
  anti-elastase activity (HLE test), mean: 90.47

## O=C1O[C@H]([C@@H](O)CO)C(O)=C1O [vitamin C]
Type I collagen; day 3
  anisotropy of collagen type I fibres: high anisotropy
  type I collagen labelling: a fibrillar labelling, being more external to the cell
Type I collagen; day 5
  anisotropy of collagen type I fibres: anisotropy is increased
  type I collagen labelling: labelling is not so intense and fibres are more oriented in one way and thinner

## IL-1b: IL-1b treatment group of fibroblasts in Table 6; not described in the method
elastin; single replicates
  Gene/actin, ELN: 11.02 and 28.48 and 10.07 and 9.393
elastin
  Gene/actin, ELN, Mean: 14.74
LOXL; single replicates
  Gene/actin, LOXL: 1.108 and 0.9779 and 1.139 and 1.246
LOXL
  Gene/actin, LOXL, Mean: 1.12

## vitamin E
[3]
  anti-free-radicals effect (% vs negative control): 54.7%

Reference: patent publication US20130028849A1, “Agent For Stimulating The Expression of Loxl” (BASF Beauty Care Solutions France S.A.S., priority 2009, published 2013)
